From US20250375420A1 (ZYLORION HEALTH INC., priority 2022, published 2025)
Like-named read-outs stand apart in the source and are kept apart here.

Experiments:
[1] = Dynamic vapor sorption (DVS) analysis; type: physicochemical
Method: Moisture sorption isotherms were collected on a DVS Adventure system from Surface Measurement Systems (London, UK). Sample size was circa 10 mg of solid material. A full sorption and desorption isotherm was recorded by varying the relative humidity from 40-95-0-40% in steps of 10% at a constant temperature of 25° C. Weight equilibration per step was set at dm/dt of 0.002%/min. Afterwards the sample was measured by HT-XRPD.

h5HT2a [2] = target: T1, h5HT2a (Homo sapiens, UniProt P28223); assay: cell-based; type: cell-based; design: expressed in transfected cells; host or cells: CHO-K1 (AequoScreen line with aequorin in A1; membranes of stably expressing CHO-K1 cells in A3)
T1 sequence (P28223 whole entry): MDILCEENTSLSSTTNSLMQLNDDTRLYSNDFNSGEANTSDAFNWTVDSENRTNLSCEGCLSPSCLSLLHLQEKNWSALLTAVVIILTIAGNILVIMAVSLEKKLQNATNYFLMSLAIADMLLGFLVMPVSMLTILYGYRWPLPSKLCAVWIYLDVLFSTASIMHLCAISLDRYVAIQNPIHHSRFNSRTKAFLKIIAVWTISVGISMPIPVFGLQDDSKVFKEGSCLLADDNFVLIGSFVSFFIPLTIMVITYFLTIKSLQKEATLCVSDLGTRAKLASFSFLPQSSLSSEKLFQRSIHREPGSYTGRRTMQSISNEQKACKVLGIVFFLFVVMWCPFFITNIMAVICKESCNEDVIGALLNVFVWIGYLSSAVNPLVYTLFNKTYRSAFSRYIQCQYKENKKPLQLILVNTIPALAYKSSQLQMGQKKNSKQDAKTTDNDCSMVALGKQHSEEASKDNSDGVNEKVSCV
Method: AequoScreen CHO-K1 cells stably-expressing h5HT2a contain an aequorin protein that, when bound to Ca^2+, is able to catalyze the breakdown of the molecule coelenterazine to produce light. Emitted light levels are proportional to endoplasmic reticulum Ca^2+ release. CHO-K1 cells were treated with between 0.1 nM-10 μM of each compound for 1 min before chemiluminescence is recorded. Resulting data are then fit to a three parameter non-linear regression to determine potency (EC50) and efficacy (Emax). Data were fit to a three-parameter non-linear regression in GraphPad (v. 9). n=3-29 independent experiments performed in duplicate or triplicate. Data are expressed as mean±SEM.

C57BL/6 mice [3] = assay: Head-twitch response (HTR); type: in vivo, mouse; conditions: i.p.
Method: C57BL/6 mice were treated with increasing doses of compounds as indicated via i.p. injection. Mice were placed inside a clear cylinder and video recorded for 10 min immediately after compound administration. Head-twitch was recorded by an individual blinded to treatment as a lateral, rhythmic shaking of the head distinct from grooming or vertical head nod. Data were plotted in GraphPad (v. 9). n≥3 animals per dose. Data are expressed as mean±SEM.

h5HT2a [4] = target: T1, h5HT2a; assay: cell-based; type: cell-based; design: expressed in transfected cells; host or cells: CHO-K1
Method: Compound activity was quantified as βarrestin2 recruitment from CHO-K1 cells expressing h5HT2a and treated with 0.1 nM-10 μM compounds.
CHO-K1 cells express h5HT2a-smBIT and βarrestin2-lgBiT fusion proteins. When h5HT2a and βarrestin2 come into contact with one another the smBIT and IgBIT peptides complement each other to produce a complete NanoBit luciferase enzyme. When complete, the enzyme is able to catalyze the breakdown of the molecule coelenterazine to produce light. Emitted light levels are proportional to interactions between h5HT2a and βarrestin2. CHO-K1 cells were treated with between 0.1 nM-10 μM of each compound for 2 h, during which period chemiluminescence is recorded. Area under the curve data for cumulative chemiluminescence are then fit to a three-parameter non-linear regression to determine potency (EC50) and efficacy (Emax). Data were fit to a three-parameter non-linear regression in GraphPad (v. 9). n=3-13 independent experiments performed in duplicate or triplicate. Data are expressed as mean±SEM.

C57BL/6 mice [5] = assay: Nociception, tail flick latency test (52° C. water); type: in vivo, mouse; conditions: i.p., increasing doses, 15 min after administration
Method: (§1) Compound activity was quantified in C57BL/6 mice for catalepsy (10 min) (top), nociception in the tail flick latency test (15 min) (middle), and body temperature relative to baseline (20 min) (bottom).
(§2) C57BL/6 mice were treated with increasing doses of compounds as indicated via i.p. injection. Tests were as follows: Body temperature is taken before administration of the first dose of compound for baseline. Catalepsy—the bar holding assay, 10 min after compound administration. Mice are placed such that their forepaws clasp a 0.7 cm ring clamp positioned 4.5 cm above the surface of the testing space. The length of time the ring is held is recorded (sec). The trial is ended if the mouse turns its head or body, or makes 3 consecutive escape attempts, to a maximum of 60 sec. Nociception—15 min after compound administration the mouse's tail is placed in 52° C. water. Latency to remove the tail from water is recorded to a maximum of 20 sec. Body temperature—rectal thermometer 20 min after compound administration. Data were plotted in GraphPad (v. 9). n≥6 animals per dose. Data are expressed as mean±SEM.

C57BL/6 mice [6] = assay: Body temperature relative to baseline (rectal thermometer); type: in vivo, mouse; conditions: i.p., increasing doses, 20 min after administration
Method: as §1, §2

C57BL/6 mice [7] = assay: Catalepsy, bar holding assay; type: in vivo, mouse; conditions: i.p., increasing doses, 10 min after administration
Method: as §1, §2

C57BL/6 mice [8] = assay: Elevated plus maze (EPM); type: in vivo, mouse; conditions: 3 mg/kg i.p., 30 min, preliminary
Method: Representative movement traces from Ethovision in male C57BL/6 mice (top, right).
C57BL/6 mice were treated 3 mg/kg of compounds via i.p. injection. Mice are placed in the EPM 30 min after compound administration. The EPM measures 1 m×1 m and the test lasts for 5 min. Total distance travelled, velocity, arm entries, and time in each arm are recorded and analyzed using EthoVision XT (Noldus, v. 17). Data were plotted in GraphPad (v. 9). n=3-5 animals per treatment. Data are expressed as mean±SEM.

C57BL/6 mice [9] = assay: Open field task (OFT); type: in vivo, mouse; conditions: i.p., 30 min after administration; significant for movement and velocity, not time in center, at 7 or 10 mg/kg
Method: C57BL/6 mice were treated with increasing doses of compounds as indicated via i.p. injection. Mice are placed in the open field 30 min after compound administration. The open field measures 1 m×1 m and the test lasts for 5 min. Total distance travelled, velocity, and time spent in the central quadrant of the field are recorded and analyzed using Etho Vision XT (Noldus, v. 17). Data were plotted in GraphPad (v. 9). n≥4 animals per dose. Data are expressed as mean±SEM.

h5HT2a [10] = target: T1, h5HT2a; assay: biochemical; type: binding; design: expressed in transfected cells; host or cells: CHO-K1 (AequoScreen line with aequorin in A1; membranes of stably expressing CHO-K1 cells in A3); conditions: 1 nM [3H]ketanserin, 0.1 nM-10 μM compound, 2 h
Method: CHO-K1 cells stably-expressing h5HT2a are grown, collected, and frozen at −80° C. Cells are thawed as needed and subjected to pressure cavitation using a Dounce homogenizer to rupture cell membranes. Cell membranes are then collected by subjecting cell lysates to high-speed centrifugation at 20,000×g for 30 min at 4° C. Homogenization and centrifugation are repeated to enrich the sample for receptor-containing cell membranes. CHO-K1 cell membranes are the co-incubated with 1 nM [^3H]ketanserin and between 0.1 nM-10 μM of each compound for 2 h. Samples are then pipetted onto filter paper before being rinsed and washed by vacuum filtration three times, dried, and incubated overnight in scintillation fluid. […] Resulting data are then fit to a three-parameter non-linear regression to determine affinity (Ki). […] Data are expressed as mean±SEM.

[11] = βarrestin2 recruitment, CHO-K1 h5HT2a

## CCc1cc(/C(C)=N/OCc2ccc(C3CCCCC3)c(C(F)(F)F)c2)ccc1CN1CC(C(=O)O)C1.CCc1cc(/C(C)=N/OCc2ccc(C3CCCCC3)c(C(F)(F)F)c2)ccc1CN1CC(C(=O)O)C1.O=C(O)/C=C/C(=O)O [Crystalline Form A]
[1]; DVS, 25° C.
  hygroscopicity according to the EP hygroscopicity classification: moderately hygroscopic
  total mass difference between 0-95% RH: 3.6%
[1]; solid recovered after DVS
  physical stability after the sorption-desorption cycle (XRPD): physically stable

## CCN(CC)C(=O)[C@@H]1C=C2c3cccc4[nH]cc(c34)C[C@H]2N(C)C1 [LSD]
h5HT2a [2]
  Emax (%) ± S.E.M.: 100 ± 9.9%
C57BL/6 mice [3]; at several tested doses
  time of peak head-twitch effect post-compound administration: around 7 min
h5HT2a [4]
  Emax (%) ± S.E.M.: 100 ± 16%

## CNCCc1c[nH]c2cccc(O)c12 [Norpsilocin]
h5HT2a [2]; Ca2+ release, CHO-K1 h5HT2a
  Emax (%) ± S.E.M.: 45 ± 14%
h5HT2a [4]; [11]
  Emax (%) ± S.E.M.: 2.9 ± 27%

## CN(C)CCc1c[nH]c2cccc(O)c12 [Psilocin]
h5HT2a [2]; Ca2+ release, CHO-K1 h5HT2a
  Emax: 89 ± 11%
h5HT2a [2]; h5HT2a-dependent Ca2+ release
  Ca2+ release activity (in words): potent activator of Ca^2+ release
C57BL/6 mice [5]
  pain perception (nociception): significantly reduces pain perception peaking at 1 mg/kg
C57BL/6 mice [6]
  body temperature: dose-dependent hypothermia
C57BL/6 mice [3]; 0-10 min after administration
  head-twitch response: time-dependent head-twitch response
C57BL/6 mice [7]
  catalepsy: do not produce catalepsy
C57BL/6 mice [8]; p=0.029, unpaired t-test
  closed arm time: significantly reduces closed arm time
C57BL/6 mice [8]; p=0.12, unpaired t-test
  open arm time: but not open arm time
C57BL/6 mice [8]
  arm entries: no significant differences in arm entries
  overall movement and velocity in EPM: trend toward reduced overall movement and velocity
h5HT2a [4]; comparison of the two h5HT2a assays
  potency in Ca2+ release assay compared with βarrestin2 recruitment assay: greater in the Ca^2+ release assay than the βarrestin2 recruitment assay
h5HT2a [4]; h5HT2a-dependent βarrestin2 recruitment
  βarrestin2 recruitment activity (in words): activator of βarrestin2 recruitment
h5HT2a [4]; [11]
  Emax: 89 ± 22%
C57BL/6 mice [9]
  movement, velocity and time in the center of the open field: dose-dependent decrease in movement, velocity, and time in the center of the open field

## CN(C)CCc1c[nH]c2cccc(OP(=O)(O)O)c12 [Psilocybin]
h5HT2a [2]; Ca2+ release, CHO-K1 h5HT2a
  Emax: 69 ± 15%
h5HT2a [2]; Ca2+ release, CHO-K1 h5HT2a, 0.1 nM-10 μM, 1 min
  EC50: 1500 nM
h5HT2a [10]
  Ki: 390 nM
C57BL/6 mice [7]
  catalepsy: do not produce catalepsy
h5HT2a [4]; [11]
  Emax: -34 ± 5.9%
h5HT2a [4]; βarrestin2 recruitment, CHO-K1 h5HT2a, 0.1 nM-10 μM, 2 h, AUC
  pEC50 ± S.E.M.: Not Converged
